Laboratory results taken from patent US4237273A, “Bis(nitrosoureido)-polyol derivatives” (Richter Gedeon Vegyeszeti Gyar RT, priority 1977, dated 1980).
Where two headings read alike, the source gives them in different places.

What was measured:
[1] = Acute toxicity (LD50), 21 days observation; format: in vivo; conditions: mouse, in vivo, BDF1 mice of both sexes
Protocol: Species: BDF1 mice of both sexes
Treatment: a volume of 0.2 ml./10 g. body weight of a suspension of the tested compounds in water containing 2% of Tween-80 was used.
Number of animals: 10/dose
Observation time: 21 days

Rausher leukemia = test: Antitumour activity, Rauscher leukemia, spleen weight (Table 3); format: in vivo, CFLP mice; conditions: from the 2nd day
Protocol: (§1) The leukemia and ascites type tumours were transplanted intraperitoneally, using an amount of 10^5 -10^7 cells, while in the case of solid tumours, small pieces of tumours were implanted subcutaneously with a trocar. Treatment:
(§2) Mice were treated with a volume of 0.1 ml./10 g. body-weight of a suspension of the tested compounds in water containing 2% of Tween-80, while rats were treated with a volume of 0.1 ml./100 g. bodyweight of a suspension of the tested compounds in water containing 5% of Tween-80.
(§3) In the case of solid tumours (Harding-Passey melanoma, S-180 and Yoshida sarcoma) the tumours were removed on the 8 to 14th day, and the inhibition was calculated by the weight of the tumours, using the following formula: [formula]
A similar method was applied in the case of the Rauscher leukemia too, but the weight of the spleen was taken, instead of the tumour, in the formula mentioned above.

Yoshida s.c. sarcoma = test: Antitumour activity, Yoshida s.c. sarcoma, tumour weight (Table 3); format: in vivo, CFY rats; conditions: from the 2nd day
Protocol: as §1, §2, §3

[2] = tested on: Developed Yoshida s.c. sarcoma; test: Recovery from developed Yoshida s.c. sarcoma, treated on 6th day (Table 4); format: in vivo, CFY rats; conditions: for Recovery (90 day survival): 30 mg./kg. 1× i.p. on 6th day, animals recovered/treated
Protocol: as §1, §2
(§4) Recovery=90 days of tumour free life after transplantation.

L-120 leukemia = test: Antitumour activity, L-1210 leukemia (Table 2); format: in vivo, BDF1 mice; conditions: for Increase in life span / Recovery (90 day survival): from the 2nd day; for Recovery (90 day survival): animals recovered/treated
Protocol: as §1, §2
(§5) The ascites and leukemia-type tumours were evaluated with the exception of the Rausher leukemia by the increase of the life span and by complete recovery. [formula]
as §4

Ehrlich acites carcinoma = test: Antitumour activity, Ehrlich ascites carcinoma (Table 2); format: in vivo, CFLP mice; conditions: from the 2nd day; for Recovery (90 day survival): animals recovered/treated
Protocol: as §1, §2, §5, §4

NK/Ly ascites lymphoma = test: Antitumour activity, NK/Ly ascites lymphoma (Table 2); format: in vivo, CFLP mice; conditions: from the 2nd day; for Recovery (90 day survival): animals recovered/treated
Protocol: as §1, §2, §5, §4

[3] = tested on: Ehrlich ascites carcinoma; test: Way of activity: mitosis index in Ehrlich ascites carcinoma; format: in vivo, Mice; conditions: i.p. on 6th day, equitoxic doses
Protocol: (§6) Mice, being infected with Ehrlich ascites carcinoma, were treated intraperitoneally on the 6th day after transplantation with equitoxic doses of compounds 1, 2 and 6. The duration of the activity was investigated by determining the total cell number and the way of action by determining the mitosis index* and the thymidine index**. It could be shown that both compounds 1 and 2 inhibit the increase of the total cell number for 35 days, while a similar inhibition of the reference compound 6 lasts only for 17 days. As far as the quality of the activity is concerned, compounds 1 and 2 decrease the mitosis-index and the thymidine index in 24 hours by 90%, while in the case of compound 6 the decrease amounts only to 45 to 50%, and the maximum is reached on the 4th day.
*mitosis index=number of dividing cells/1000 tumour cells

[4] = tested on: Ehrlich ascites carcinoma; test: Way of activity: thymidine index (3H-thymidine incorporation into DNS) in Ehrlich ascites carcinoma; format: in vivo, Mice; conditions: i.p. on 6th day, equitoxic doses
Protocol: as §6
**thymidine index=^3 H-thymidine incorporation into the DNS of the tumour cell.

Harding-Passey melanoma = test: Antitumour activity, Harding-Passey melanoma, tumour weight (Table 3); format: in vivo, CFLP mice; conditions: from the 4th day after transplantation
Protocol: as §1, §2, §3

[5] = tested on: Ehrlich ascites carcinoma; test: Duration of activity: total cell number in Ehrlich ascites carcinoma; format: in vivo, Mice; conditions: i.p. on the 6th day after transplantation, equitoxic doses
Protocol: as §6

S-180 s.c. sarcoma = test: Antitumour activity, S-180 s.c. sarcoma, tumour weight (Table 3); format: in vivo, CFLP mice; conditions: from the 2nd day
Protocol: as §1, §2, §3

P-388 leukemia = test: Antitumour activity, P-388 leukemia (Table 2); format: in vivo, BDF1 mice; conditions: from the 2nd day; for Recovery (90 day survival): animals recovered/treated
Protocol: as §1, §2, §5, §4

[6] = ip, i.p., read-out: LD50 value i.p.
[7] = po, p.o., read-out: LD50 value p.o.

Structure (SMILES) | LD50 at 504 h [1, 6] [mg/kg] | LD50 at 504 h [1, 7] [mg/kg] | Inhibition (spleen weight) (Rausher leukemia; 10.0 mg./kg. 4× i.p.) [%] | Inhibition (spleen weight) (Rausher leukemia; 10.0 mg./kg. 4× p.o.) [%] | Inhibition (tumour weight) (Yoshida s.c. sarcoma; 3 mg./kg. 4× p.o.) [%] | Inhibition (tumour weight) (Yoshida s.c. sarcoma; 10 mg./kg. 4× i.p.) [%] | Recovery (90 day survival) [2] | Increase in life span (L-120 leukemia; 3.0 mg./kg. 4× i.p.) [%] | Recovery (90 day survival) (L-120 leukemia; 3.0 mg./kg. 4× i.p.) | Increase in life span (L-120 leukemia; 10.0 mg./kg. 4× i.p.) [%] | Recovery (90 day survival) (L-120 leukemia; 10.0 mg./kg. 4× i.p.) | Increase in life span (Ehrlich acites carcinoma; 1.0 mg./kg. 5× i.p.) [%] | Recovery (90 day survival) (Ehrlich acites carcinoma; 1.0 mg./kg. 5× i.p.) | Recovery (90 day survival) (NK/Ly ascites lymphoma; 0.3 mg./kg. 4× i.p.) | Inhibition (tumour weight) (Harding-Passey melanoma; 10.0 mg./kg. 9× p.o.) [%] | Duration of inhibition of the increase of the total cell number [5] [days] | Inhibition (tumour weight) (S-180 s.c. sarcoma; 10.0 mg./kg. 5× i.p.) [%] | Increase in life span (L-120 leukemia; 10.0 mg./kg. 4× p.o.) [%] | Recovery (90 day survival) (L-120 leukemia; 10.0 mg./kg. 4× p.o.) | Inhibition (tumour weight) (Harding-Passey melanoma; 3.0 mg./kg. 9× i.p.) [%] | other results
O=NN(CCCl)C(=O)NC[C@@H](O)[C@H](O)CN(N=O)C(=O)NCCCl (racemic) [Compound 4, 1-[3-(2-chloroethyl)-3-nitrosoureido]-4-[3-(2-chloroethyl)-1-nitrosoureido]-1,4-dideoxy-D,L-threitol] | 80 | 130 | 100 | 100 | 50 | 82 |  |  |  |  |  |  |  |  |  |  |  |  |  |  | 
O=NN(CCCl)C(=O)NC[C@@H](O)[C@H](O)CNC(=O)N(CCCl)N=O (racemic) [Compound 5, 1,4-bis[3-(2-chloroethyl)-3-nitrosoureido]-1,4-dideoxy-D,L-threitol] | 40 | 75 |  | 100 | 62 |  |  |  |  |  |  |  |  |  |  |  |  |  |  |  | Inhibition (spleen weight) (Rausher leukemia; 3.0 mg./kg. 4× i.p.): 75%; Inhibition (tumour weight) (Yoshida s.c. sarcoma; 10 mg./kg. 2× p.o.): 99%
O=NN(CCCl)C(=O)NC[C@@H](O)[C@@H](O)[C@H](O)[C@H](O)CNC(=O)N(CCCl)N=O [Compound 2, 1,6-bis[3-(3-chloroethyl)-N-nitrosoureido]-1,6-dideoxy-D-mannitol] | 110 | 250 | 86 |  |  | 84 | 4/7 | 158 | 3/10 | 140 | 8/10 | 96 | 4/7 | 6/7 | 59 | 35 | 56 |  |  |  | Increase in life span (L-120 leukemia; 1.0 mg./kg. 4× i.p.): 58%; Recovery (90 day survival) (L-120 leukemia; 1.0 mg./kg. 4× i.p.): 0/10; Decrease of the mitosis-index ([3]; in 24 hours): 90%; Decrease of the thymidine index ([4]; in 24 hours): 90%; Inhibition (tumour weight) (Harding-Passey melanoma; 10.0 mg./kg. 9× i.p.): 42%; Inhibition (tumour weight) (Yoshida s.c. sarcoma; 30 mg./kg. 4× p.o.): 75%; Inhibition (tumour weight) (S-180 s.c. sarcoma; 30.0 mg./kg. 5× p.o.): 51%; Increase in life span (P-388 leukemia; 10.0 mg./kg. 4× i.p.): 131%; Recovery (90 day survival) (P-388 leukemia; 10.0 mg./kg. 4× i.p.): 0/8
O=NN(CCCl)C(=O)N[C@H]1C[C@@H](NC(=O)N(CCCl)N=O)[C@H](O)[C@@H](O)[C@@H]1O [Compound 3, 1,3-bis[3-(2-chloroethyl)-N-nitriosoureido]-1,2,3-trideoxyscylloinositol] | 40 | 100 |  |  |  | 86 |  |  |  |  |  | 46 | 2/7 |  | 38 |  |  | 61 | 1/7 | 54 | Increase in life span (L-120 leukemia; 15.0 mg./kg. 1× i.p.): 180%; Recovery (90 day survival) (L-120 leukemia; 15.0 mg./kg. 1× i.p.): 5/8; Recovery (90 day survival) (NK/Ly ascites lymphoma; 0.1 mg./kg. 4× (route not given)): 7/7; Increase in life span (NK/Ly ascites lymphoma; 10.0 mg./kg. 4× p.o.): 61%; Recovery (90 day survival) (NK/Ly ascites lymphoma; 10.0 mg./kg. 4× p.o.): 1/7; Inhibition (spleen weight) (Rausher leukemia; 10.0 mg./kg. 6× i.p.): 100%; Increase in life span (P-388 leukemia; 3.0 mg./kg. 4× i.p.): 101%; Recovery (90 day survival) (P-388 leukemia; 3.0 mg./kg. 4× i.p.): 0/8
O=NN(CCCl)C(=O)NCCCl [Compound 6, 1,3-bis(2-chloroethyl)-1-nitrosourea, reference compound] | 36 | 40 |  |  | 45 | 95 | 0/7 | 40 | 0/8 | 405 | 6/7 |  |  | 0/7 |  | 17 | 65 | 106 | 1/8 | 64 | Cure of Yoshida subcutaneous sarcoma, in words ([2]; single dose on the 6th day): inactive; Increase in life span (L-120 leukemia; 24.0 mg./kg. 1× p.o.): 48%; Recovery (90 day survival) (L-120 leukemia; 24.0 mg./kg. 1× p.o.): 0/8; Activity on L-1210 leukemia on oral application, in words (L-120 leukemia; oral): only an unsignificant oral activity; Increase in life span (Ehrlich acites carcinoma; 3.0 mg./kg. 5× i.p.): 60%; Recovery (90 day survival) (Ehrlich acites carcinoma; 3.0 mg./kg. 5× i.p.): 1/6; Recovery (90 day survival) (NK/Ly ascites lymphoma; 1.0 mg./kg. 4× i.p.): 5/7; Recovery (90 day survival) (NK/Ly ascites lymphoma; 3.0 mg./kg. 4× i.p.): 7/7; Day on which the maximum decrease of the mitosis-index is reached [3]: 4 days; Day on which the maximum decrease of the thymidine index is reached [4]: 4 days; Inhibition (tumour weight) (Harding-Passey melanoma; 3.0 mg./kg. 9× p.o.): 71%; Inhibition (spleen weight) (Rausher leukemia; 10.0 mg./kg. 6× i.p.): 97%; Inhibition (tumour weight) (Yoshida s.c. sarcoma; 10 mg./kg. 4× p.o.): 100%; Inhibition (tumour weight) (S-180 s.c. sarcoma; 10.0 mg./kg. 5× p.o.): 32%; Increase in life span (P-388 leukemia; 3.0 mg./kg. 4× i.p.): 51%; Recovery (90 day survival) (P-388 leukemia; 3.0 mg./kg. 4× i.p.): 0/8
